Measurements: ChEMBL document CHEMBL1133572, “Protease inhibitors: current status and future prospects” (J Med Chem, 2000)
Each block holds one compound with its values, some of them ahead of it. Non-standard residues stand in square brackets, D forms with d. Residues, ends and D or L forms follow the SMILES beside them. *: point of attachment. Cbz = O=C(OCc1ccccc1)*; Dap = NC[C@H](N)C(=O)O

Experiments:
Enterovirus = experiment: Inhibitory activity against the different replication of HRV serotypes and related piocornaviruses A21 and B3, enterovirus 70 and echo virus 11; assay type: functional, organism-based
[1] = The inhibition against liver metastases at 100 ug/mL.; assay type: ADME, tissue-based
[2] = Tmax value of the compound; assay type: ADME
[3] = Plasma half life at the dose of 5 mg/kg iv.; assay type: ADME, organism-based; set-up: dose 5 mg/kg
[4] = Cmax value in the period of 0-24 hr after dosing.; assay type: ADME, organism-based; conditions: in vivo
[5] = Oral bioavailability in rats at the dose of 10 mg/kg po; assay type: ADME, organism-based; conditions: rat, in vivo, read-out: Bioavailabiility
[6] = Cmax value at the period of 800 mg po for every 8 hr.; assay type: ADME, organism-based; set-up: dose 800 mg, route oral; conditions: in vivo
[7] = Oral bioavailability in dog; assay type: ADME, organism-based, Canis lupus familiaris; conditions: in vivo
Cathepsin B = Cathepsin B (Homo sapiens, UniProt P07858)
Procathepsin L = Procathepsin L (Homo sapiens, UniProt P07711)
Chain of Procathepsin L (P07711 whole entry): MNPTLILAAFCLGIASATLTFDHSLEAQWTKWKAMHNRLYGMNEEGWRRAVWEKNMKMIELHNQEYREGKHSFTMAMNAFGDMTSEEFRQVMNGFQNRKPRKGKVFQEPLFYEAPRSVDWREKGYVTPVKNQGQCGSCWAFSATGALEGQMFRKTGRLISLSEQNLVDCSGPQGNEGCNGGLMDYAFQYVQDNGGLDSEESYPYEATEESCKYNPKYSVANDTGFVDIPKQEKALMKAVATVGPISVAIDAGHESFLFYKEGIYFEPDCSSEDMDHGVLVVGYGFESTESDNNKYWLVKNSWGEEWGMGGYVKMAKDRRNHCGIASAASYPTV

Papain = Papain (Carica papaya, UniProt P00784); experiment: The apparent binding affinity against Papain; conditions: read-out: Ki app
Chain of Papain (P00784 whole entry): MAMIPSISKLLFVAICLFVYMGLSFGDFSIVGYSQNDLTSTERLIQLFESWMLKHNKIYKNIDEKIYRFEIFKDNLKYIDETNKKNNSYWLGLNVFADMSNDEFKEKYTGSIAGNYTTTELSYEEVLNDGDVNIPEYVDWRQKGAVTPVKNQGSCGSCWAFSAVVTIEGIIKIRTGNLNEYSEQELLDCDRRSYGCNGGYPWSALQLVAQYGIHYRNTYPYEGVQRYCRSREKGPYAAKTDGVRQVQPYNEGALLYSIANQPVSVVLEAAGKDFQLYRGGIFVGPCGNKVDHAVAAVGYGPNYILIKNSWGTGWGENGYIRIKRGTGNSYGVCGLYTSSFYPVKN

[8] = Cmax value of the compound; assay type: ADME, organism-based; conditions: in vivo
Neutrophil collagenase = Neutrophil collagenase (Homo sapiens, UniProt P22894); experiment: Inhibition of matrix metalloprotease-8 (MMP-8).
Chain of Neutrophil collagenase (P22894 whole entry): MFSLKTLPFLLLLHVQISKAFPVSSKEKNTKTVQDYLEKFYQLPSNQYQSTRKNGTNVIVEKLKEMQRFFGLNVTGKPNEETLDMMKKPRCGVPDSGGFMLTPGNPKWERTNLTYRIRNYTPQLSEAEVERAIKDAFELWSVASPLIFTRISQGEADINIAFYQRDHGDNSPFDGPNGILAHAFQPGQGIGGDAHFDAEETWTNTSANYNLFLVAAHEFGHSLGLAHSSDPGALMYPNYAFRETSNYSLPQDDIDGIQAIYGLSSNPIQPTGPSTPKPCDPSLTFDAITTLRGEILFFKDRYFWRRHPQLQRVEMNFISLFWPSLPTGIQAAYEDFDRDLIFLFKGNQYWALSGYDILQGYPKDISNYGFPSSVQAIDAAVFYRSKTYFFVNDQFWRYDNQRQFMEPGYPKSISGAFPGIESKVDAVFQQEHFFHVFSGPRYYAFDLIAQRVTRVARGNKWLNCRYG

[9] = target: Matrix metalloproteinase-9 (Homo sapiens, UniProt P14780)
Chain of Matrix metalloproteinase-9 (P14780 whole entry): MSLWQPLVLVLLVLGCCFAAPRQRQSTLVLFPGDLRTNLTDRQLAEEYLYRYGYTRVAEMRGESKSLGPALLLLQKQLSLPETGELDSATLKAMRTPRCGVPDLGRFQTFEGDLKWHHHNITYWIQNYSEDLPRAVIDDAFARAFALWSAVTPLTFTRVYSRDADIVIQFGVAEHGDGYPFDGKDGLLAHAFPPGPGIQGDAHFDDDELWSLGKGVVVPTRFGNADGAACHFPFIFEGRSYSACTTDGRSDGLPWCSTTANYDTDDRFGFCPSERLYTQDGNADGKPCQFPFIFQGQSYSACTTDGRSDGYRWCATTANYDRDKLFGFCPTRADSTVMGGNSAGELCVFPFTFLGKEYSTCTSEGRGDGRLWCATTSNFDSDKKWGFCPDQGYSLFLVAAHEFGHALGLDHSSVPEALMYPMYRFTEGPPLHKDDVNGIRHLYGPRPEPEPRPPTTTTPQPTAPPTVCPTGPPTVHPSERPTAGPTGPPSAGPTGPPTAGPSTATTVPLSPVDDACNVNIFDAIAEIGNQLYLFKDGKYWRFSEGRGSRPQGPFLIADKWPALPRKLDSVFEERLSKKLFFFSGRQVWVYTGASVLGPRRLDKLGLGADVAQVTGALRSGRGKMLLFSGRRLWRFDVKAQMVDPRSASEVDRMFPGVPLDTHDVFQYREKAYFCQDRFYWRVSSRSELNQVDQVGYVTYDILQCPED

[10] = target: 72 kDa type IV collagenase (Homo sapiens, UniProt P08253)
Chain of 72 kDa type IV collagenase (P08253 whole entry): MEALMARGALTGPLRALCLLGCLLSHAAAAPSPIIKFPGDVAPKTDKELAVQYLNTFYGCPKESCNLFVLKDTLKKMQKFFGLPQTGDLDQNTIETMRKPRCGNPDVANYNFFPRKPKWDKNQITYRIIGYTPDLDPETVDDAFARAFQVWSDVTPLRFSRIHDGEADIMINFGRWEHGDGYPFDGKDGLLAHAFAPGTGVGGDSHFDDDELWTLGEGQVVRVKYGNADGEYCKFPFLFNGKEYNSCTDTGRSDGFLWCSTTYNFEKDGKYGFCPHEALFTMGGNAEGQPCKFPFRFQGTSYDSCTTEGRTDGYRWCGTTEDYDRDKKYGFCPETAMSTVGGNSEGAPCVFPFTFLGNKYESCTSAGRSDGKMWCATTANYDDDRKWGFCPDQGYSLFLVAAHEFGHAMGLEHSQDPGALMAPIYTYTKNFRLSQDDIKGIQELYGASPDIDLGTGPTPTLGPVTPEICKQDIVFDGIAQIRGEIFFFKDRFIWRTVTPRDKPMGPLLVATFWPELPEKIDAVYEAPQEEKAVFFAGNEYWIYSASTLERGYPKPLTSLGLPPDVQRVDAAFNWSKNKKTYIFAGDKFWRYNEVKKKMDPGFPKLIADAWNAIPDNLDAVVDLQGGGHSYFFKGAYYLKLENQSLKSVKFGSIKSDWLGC

[11] = Inhibitory concentration required to reduce hemorrhage by 50%at the dose of 15 n mol /animal,72 hr prior to elastase.; assay type: functional
Cricetinae gen. sp. [12] = experiment: Inhibitory concentration against elastase; assay type: functional, Cricetulus griseus; conditions: read-out: ID50 (the source's name)
Cricetinae gen. sp. [13] = experiment: Inhibition against at the dose of 30 mg/kg after 5 hr.; assay type: functional, Cricetulus griseus
[14] = target: Neutrophil elastase (Homo sapiens) (UniProt P08246); experiment: Inhibition of elastase.
Chain of Neutrophil elastase (Homo sapiens) (P08246 whole entry): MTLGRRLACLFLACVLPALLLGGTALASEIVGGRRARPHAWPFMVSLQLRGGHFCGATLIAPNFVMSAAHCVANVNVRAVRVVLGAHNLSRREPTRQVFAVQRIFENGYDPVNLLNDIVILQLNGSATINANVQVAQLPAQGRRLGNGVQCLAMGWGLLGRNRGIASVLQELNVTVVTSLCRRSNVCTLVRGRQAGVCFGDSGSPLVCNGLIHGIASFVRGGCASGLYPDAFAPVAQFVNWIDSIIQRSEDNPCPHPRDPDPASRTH

[15] = Half life.; assay type: ADME
Cricetinae gen. sp. [16] = experiment: Inhibition against at the dose of 30 mg/kg after 30 minutes.; assay type: functional, Cricetulus griseus; conditions: 0.5 h
Renin [17] = target: T1, Renin (Homo sapiens, UniProt P00797); experiment: Inhibitory concentration against renin..
T1 sequence (P00797 whole entry): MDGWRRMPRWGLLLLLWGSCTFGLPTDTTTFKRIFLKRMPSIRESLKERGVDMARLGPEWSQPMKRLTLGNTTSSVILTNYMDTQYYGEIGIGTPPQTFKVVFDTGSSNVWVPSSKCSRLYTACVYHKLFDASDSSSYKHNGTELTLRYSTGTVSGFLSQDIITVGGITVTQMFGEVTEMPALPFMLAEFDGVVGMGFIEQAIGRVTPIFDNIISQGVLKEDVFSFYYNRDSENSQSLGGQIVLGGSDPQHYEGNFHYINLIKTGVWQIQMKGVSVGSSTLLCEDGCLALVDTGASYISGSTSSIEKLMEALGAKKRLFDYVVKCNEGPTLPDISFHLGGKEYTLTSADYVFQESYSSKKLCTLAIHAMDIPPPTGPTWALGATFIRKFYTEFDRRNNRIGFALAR

Cathepsin D [18] = target: T2, Cathepsin D (Homo sapiens, UniProt P07339); experiment: Inhibitory concentration against cathepsin D
T2 sequence (P07339 65-162 limits assumed): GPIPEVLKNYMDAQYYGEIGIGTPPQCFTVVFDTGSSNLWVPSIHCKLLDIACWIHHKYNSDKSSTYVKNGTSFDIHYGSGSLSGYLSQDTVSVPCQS
T2 sequence (P07339 169-412 limits assumed): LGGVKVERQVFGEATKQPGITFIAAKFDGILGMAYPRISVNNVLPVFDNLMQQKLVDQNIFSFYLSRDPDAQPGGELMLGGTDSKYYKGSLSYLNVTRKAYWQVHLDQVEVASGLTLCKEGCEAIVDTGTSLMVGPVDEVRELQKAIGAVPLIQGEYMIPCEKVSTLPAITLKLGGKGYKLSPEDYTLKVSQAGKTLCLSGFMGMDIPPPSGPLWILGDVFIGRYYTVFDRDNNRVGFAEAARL

[19] = Inhibitory concentration against SAP
Neprilysin = target: T3, Neprilysin (Rattus norvegicus, UniProt P07861); experiment: Inhibitory activity against neutral Endopeptidase
T3 sequence (P07861 whole entry): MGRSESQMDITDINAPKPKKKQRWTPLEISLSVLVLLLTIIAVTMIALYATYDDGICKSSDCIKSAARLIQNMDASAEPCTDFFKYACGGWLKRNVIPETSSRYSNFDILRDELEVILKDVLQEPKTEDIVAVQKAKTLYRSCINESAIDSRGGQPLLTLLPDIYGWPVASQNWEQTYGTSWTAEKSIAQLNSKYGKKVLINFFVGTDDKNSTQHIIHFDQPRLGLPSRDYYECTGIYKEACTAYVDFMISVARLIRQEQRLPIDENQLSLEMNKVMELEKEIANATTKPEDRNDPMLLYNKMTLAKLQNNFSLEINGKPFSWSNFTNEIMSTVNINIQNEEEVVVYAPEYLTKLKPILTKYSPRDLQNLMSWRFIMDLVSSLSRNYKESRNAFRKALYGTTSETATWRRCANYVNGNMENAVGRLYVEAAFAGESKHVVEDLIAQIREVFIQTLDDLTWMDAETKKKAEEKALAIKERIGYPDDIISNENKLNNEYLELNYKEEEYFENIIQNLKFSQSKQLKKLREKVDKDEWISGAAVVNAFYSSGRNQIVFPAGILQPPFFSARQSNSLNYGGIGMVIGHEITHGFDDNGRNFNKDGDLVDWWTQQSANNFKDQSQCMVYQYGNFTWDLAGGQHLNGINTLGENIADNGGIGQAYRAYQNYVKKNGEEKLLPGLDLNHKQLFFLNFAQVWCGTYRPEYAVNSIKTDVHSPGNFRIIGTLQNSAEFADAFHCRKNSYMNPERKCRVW

Interstitial collagenase = target: T4, Interstitial collagenase (Homo sapiens, UniProt P03956)
T4 sequence (P03956 whole entry): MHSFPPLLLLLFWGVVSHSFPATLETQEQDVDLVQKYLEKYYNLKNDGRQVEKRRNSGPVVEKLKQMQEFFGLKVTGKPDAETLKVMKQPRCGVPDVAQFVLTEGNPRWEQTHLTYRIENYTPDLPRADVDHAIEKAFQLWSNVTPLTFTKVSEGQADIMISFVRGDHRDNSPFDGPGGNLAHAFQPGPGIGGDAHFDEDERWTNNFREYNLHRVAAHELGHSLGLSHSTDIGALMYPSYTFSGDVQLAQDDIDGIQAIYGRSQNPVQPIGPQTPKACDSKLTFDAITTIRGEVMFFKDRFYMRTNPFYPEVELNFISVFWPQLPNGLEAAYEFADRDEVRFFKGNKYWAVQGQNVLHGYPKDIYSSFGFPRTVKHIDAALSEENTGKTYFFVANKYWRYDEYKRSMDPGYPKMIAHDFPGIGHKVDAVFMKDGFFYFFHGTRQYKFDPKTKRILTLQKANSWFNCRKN

Collagenase 3 = Collagenase 3 (Homo sapiens, UniProt P45452)
[20] = oral bioavailability in dogs and monkeys.; assay type: ADME, organism-based, Canis lupus familiaris; conditions: dog, in vivo, read-out: Bioavailabiility
[21] = Inhibitory concentration against several aspartic proteases of Candida albicans
Renin [22] = target: T1, Renin; experiment: Inhibitory concentration against renin.
Caspase-3 = Caspase-3 (Homo sapiens, UniProt P42574); experiment: Inhibitory activity against caspase-3.
Chain of Caspase-3 (P42574 29-175 limits assumed): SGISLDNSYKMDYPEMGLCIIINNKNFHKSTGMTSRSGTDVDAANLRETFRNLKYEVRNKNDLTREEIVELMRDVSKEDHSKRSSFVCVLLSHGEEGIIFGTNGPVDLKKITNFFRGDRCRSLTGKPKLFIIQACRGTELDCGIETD
Chain of Caspase-3 (P42574 176-277 limits assumed): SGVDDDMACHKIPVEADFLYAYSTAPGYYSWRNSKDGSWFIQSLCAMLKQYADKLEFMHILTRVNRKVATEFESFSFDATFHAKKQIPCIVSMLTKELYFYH

Caspase-1 = target: T5, Caspase-1 (Homo sapiens, UniProt P29466)
T5 sequence (P29466 whole entry): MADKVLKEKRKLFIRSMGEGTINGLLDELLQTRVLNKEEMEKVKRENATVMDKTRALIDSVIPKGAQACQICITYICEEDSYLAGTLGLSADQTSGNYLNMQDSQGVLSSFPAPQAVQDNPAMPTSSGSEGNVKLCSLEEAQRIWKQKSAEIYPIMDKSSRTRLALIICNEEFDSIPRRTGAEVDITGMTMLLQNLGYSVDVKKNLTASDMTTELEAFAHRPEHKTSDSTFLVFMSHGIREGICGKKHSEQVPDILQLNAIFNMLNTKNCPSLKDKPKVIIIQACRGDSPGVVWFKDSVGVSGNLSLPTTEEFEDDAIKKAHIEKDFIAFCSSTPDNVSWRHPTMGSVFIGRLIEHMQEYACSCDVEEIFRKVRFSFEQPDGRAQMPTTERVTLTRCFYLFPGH

[23] = Inhibitory concentration against the live parasite in preventing hemoglobin degradation.; assay type: functional
[24] = target: Plasmepsin II (Plasmodium falciparum) (UniProt P46925); experiment: Inhibition of Plasmodium falciparum plasmepsin-2 at 10 uM
Chain of Plasmepsin II (Plasmodium falciparum) (P46925 125-453 limits assumed): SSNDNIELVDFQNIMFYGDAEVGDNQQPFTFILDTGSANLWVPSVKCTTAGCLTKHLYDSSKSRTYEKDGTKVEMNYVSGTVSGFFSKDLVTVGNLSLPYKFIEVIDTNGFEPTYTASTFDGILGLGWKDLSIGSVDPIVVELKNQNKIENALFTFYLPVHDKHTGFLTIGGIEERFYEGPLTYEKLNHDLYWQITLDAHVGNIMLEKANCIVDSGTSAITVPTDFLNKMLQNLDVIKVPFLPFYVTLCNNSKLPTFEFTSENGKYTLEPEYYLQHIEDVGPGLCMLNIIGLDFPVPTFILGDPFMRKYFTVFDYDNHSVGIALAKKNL

Plasmepsin I = Plasmepsin I (Plasmodium falciparum, UniProt P39898); experiment: Inhibitory concentration for Plasmodium falciparum plasmepsin-1.
Chain of Plasmepsin I (P39898 whole entry): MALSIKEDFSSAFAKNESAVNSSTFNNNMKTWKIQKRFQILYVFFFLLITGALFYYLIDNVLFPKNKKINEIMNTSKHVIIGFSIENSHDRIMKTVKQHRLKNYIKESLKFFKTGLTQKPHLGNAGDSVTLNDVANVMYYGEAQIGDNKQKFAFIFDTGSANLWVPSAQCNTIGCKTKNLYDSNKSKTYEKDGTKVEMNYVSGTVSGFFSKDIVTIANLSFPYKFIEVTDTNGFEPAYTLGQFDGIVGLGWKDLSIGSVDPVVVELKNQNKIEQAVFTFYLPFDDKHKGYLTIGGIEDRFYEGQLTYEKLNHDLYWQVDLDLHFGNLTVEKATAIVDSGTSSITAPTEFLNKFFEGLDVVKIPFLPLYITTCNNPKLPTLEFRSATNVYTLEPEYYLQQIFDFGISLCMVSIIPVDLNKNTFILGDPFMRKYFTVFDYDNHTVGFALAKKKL

[25] = oral bioavailability in cynomolgus monkeys; assay type: ADME, organism-based, Macaca fascicularis; conditions: cynomolgus monkey, in vivo, read-out: Bioavailabiility
Cathepsin D [26] = target: T2, Cathepsin D; experiment: Inhibitory concentration against human cathepsin D.
Renin [27] = target: T1, Renin
[28] = Half life in dogs.; assay type: ADME, organism-based, Canis lupus familiaris; conditions: dog, in vivo
[29] = oral bioavailability in marmosets; assay type: ADME, organism-based; conditions: callithrix, in vivo, read-out: Bioavailabiility
Pepsin A = Pepsin A (Sus scrofa, UniProt P00791); experiment: Inhibitory concentration against porcine pepsin
Chain of Pepsin A (P00791 whole entry): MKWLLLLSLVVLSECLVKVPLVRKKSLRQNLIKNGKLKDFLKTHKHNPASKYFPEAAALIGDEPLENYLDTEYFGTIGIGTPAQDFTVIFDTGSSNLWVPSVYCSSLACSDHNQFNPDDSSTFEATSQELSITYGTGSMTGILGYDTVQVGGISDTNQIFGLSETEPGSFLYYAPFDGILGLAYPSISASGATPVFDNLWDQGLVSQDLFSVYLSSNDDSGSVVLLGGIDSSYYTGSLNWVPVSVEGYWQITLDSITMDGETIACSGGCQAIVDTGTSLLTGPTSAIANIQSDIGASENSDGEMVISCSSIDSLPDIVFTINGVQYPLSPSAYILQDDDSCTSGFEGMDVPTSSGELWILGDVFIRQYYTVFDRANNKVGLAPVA

SMILES: CC(=O)NC[C@@H](C=O)NC(=O)[C@H](Cc1ccccc1)NC(=O)[C@H](CC(C)C)NC(=O)OCc1ccccc1 (Cbz-Leu-Phe-[Dap](Ac)-aldehyde)
Ki (Enterovirus): 6 nM

Inhibition [1]: 90%
SMILES: CC(C)C[C@H](NC(=O)[C@H]1O[C@@H]1C(=O)O)C(=O)NCCCCN=C(N)N [E-64]

Tmax [2]: 2 h
half-life [3]: 1.2 h
Cmax [4]: 2.6 µM
bioavailability [5]: 78%
SMILES: CC(C)c1nc(CN(C)C(=O)N[C@H](C(=O)N[C@@H](Cc2ccccc2)C[C@H](O)[C@H](Cc2ccccc2)NC(=O)OCc2cncs2)C(C)C)cs1 [RITONAVIR]

Tmax [2]: 1 h
Cmax [6]: 12 µM
bioavailability ([7]; read-out: Bioavailabiility): 90%
SMILES: CC(C)(C)NC(=O)[C@@H]1CN(Cc2cccnc2)CCN1C[C@@H](O)C[C@@H](Cc1ccccc1)C(=O)N[C@H]1c2ccccc2C[C@H]1O.O

Ki (Cathepsin B): 1300 nM
Ki (Procathepsin L): 340 nM
Ki (Papain): > 10000 nM
SMILES: CC(C)C[C@H](NC(=O)OCc1ccccc1)C(=O)NCC(=O)CNC(=O)[C@H](CC(C)C)NC(=O)OCc1ccccc1

Cmax [8]: 470 ng/mL
SMILES: COc1cc(C(C)C)c2c(c1)S(=O)(=O)N(COC(=O)c1c(Cl)ccc(OCCN3CCOCC3)c1Cl)C2=O

Ki (Neutrophil collagenase): 4 nM
Ki [9]: 59 nM
Ki [10]: 154 nM
SMILES: CN1C(=O)N(C[C@H](C(=O)NO)[C@@H](CC2CCCC2)C(=O)N2CCCCC2)C(=O)C1(C)C

IC50 [11]: 26 nM
SMILES: CC(C)C(NC(=O)c1ccc(S(=O)(=O)NC(=O)c2ccc(Cl)c(S(=O)(=O)NC(=O)CSc3cc(C(C)(C)C)c(O)c(C(C)(C)C)c3)c2)cc1)C(=O)N1Cc2ccccc2C1C(=O)NC(C(=O)C(F)(F)F)C(C)C (stereo unspecified)

SMILES: CC(C)(C)C(=O)Oc1ccc(S(=O)(=O)Nc2ccccc2C(=O)NCC(=O)O)cc1
ED50 (Cricetinae gen. sp. [12]): 0.082 mg/kg

SMILES: CC[C@@H](NC(=O)N1C(=O)[C@](C)(CC)[C@@H]1Oc1ccc(CC(=O)O)cc1)c1ccccc1
inhibition in vivo at 30 mg/kg (Cricetinae gen. sp. [13]): 51%
K obs / 1 [14]: 91000 M⁻¹ s⁻¹
half-life [15]: 5 h
inhibition in vivo at 30 mg/kg (Cricetinae gen. sp. [16]): 98%

IC50 (Renin [17]): > 100 nM
IC50 (Cathepsin D [18]): 58000 nM
IC50 [19]: 6.2 nM
SMILES: CCCC[C@@H](C(=O)N[C@@H](CC1CCCCC1)[C@@H](O)C[C@H](C(=O)NCCN(C)C)C(C)C)N1CCN(C(=O)N2CCN(C)CC2)[C@H](Cc2ccccc2)C1=O

Ki (Neprilysin): 5.6 nM
SMILES: C[C@H](NC(=O)[C@@H](CS)Cc1ccc2c(c1)OCO2)C(=O)O

Ki (Interstitial collagenase): 5000 nM
Ki (Collagenase 3): 1470 nM
Ki [9]: 301 nM
Ki [10]: 11 nM
SMILES: O=C(C[C@H](CSc1ccccc1)C(=O)O)c1ccc(-c2ccc(Cl)cc2)cc1 [TANOMASTAT]

bioavailability [20]: 20%
SMILES: CN1CCN=C1c1cccc(Oc2nc(Oc3cc(C(=N)N)ccc3O)c(F)c(N(C)CC(=O)O)c2F)c1 [FIDEXABAN]

IC50 [21]: 1.4 nM
IC50 (Renin [22]): 7.1 nM
IC50 (Cathepsin D [18]): 770 nM
SMILES: CCCC[C@@H](C(=O)N[C@@H](CC1CCCCC1)[C@@H](O)C[C@H](C(=O)NCCC)C(C)C)N1CCN(C(=O)N2CCN(C)CC2)[C@H](Cc2ccccc2)C1=O

IC50 (Caspase-3): > 10000 nM
IC50 (Caspase-1): 36 nM
SMILES: O=C1C[C@H](NC(=O)[C@@H]2CCC[C@@H]3CCC[C@H](NC(=O)OCc4ccccc4)C(=O)N32)C(O)O1 (stereo partly specified)

IC50 [23]: 5000 nM
inhibition [24]: 22%
IC50 (Plasmepsin I): 500 nM
SMILES: CCCCC(O)[C@H](C)C[C@H](O)[C@H](CC1CCCCC1)NC(=O)[C@H](CC(C)C)NC(=O)[C@H](Cc1ccccc1)NC(=O)OC(C)(C)C (stereo partly specified)

bioavailability [25]: > 27%
IC50 (Cathepsin D [26]): 550 nM
IC50 (Renin [27]): 4 nM
half-life [28]: 2.4 h
bioavailability [29]: 59%
bioavailability [7]: 60%
IC50 (Pepsin A): 2100 nM
SMILES: CNC1CCN(C(=O)C[C@@H](Cc2ccccc2)C(=O)N[C@@H](CSC)C(=O)N[C@@H](CC2CCCCC2)[C@@H](O)C(=O)OC(C)C)CC1
